The source made the active and inactive calls. No rule for the calls is given here.

In the data set the test system is CCRIS mutagenicity, Ames/micronucleus/aberration tests. The data set can be described thus: CCRIS mutagenicity studies.
[1] abbreviates: Test System: AMES SALMONELLA TYPHIMURIUM, Strain/Indicator: TA100, Metabolic Activation: NONE, Method: PREINCUBATION
[2] abbreviates: Test System: MOUSE LYMPHOMA, Strain/Indicator: L5178Y (TK+/TK-), Metabolic Activation: NONE, Method: SUSPENSION/PLATE.

Regarding `COc1cccc2c1C(=O)c1c(O)c3c(c(O)c1C2=O)C[C@@](O)(C(=O)CO)C[C@@H]3O[C@H]1C[C@H](N)[C@H](O)[C@H](C)O1`, the mutagenic call was “active; positive” (End Point: IN VITRO CHROMOSOMAL ABERRATIONS, Test System: CHO-WBL CELLS, Metabolic Activation: NONE); “active; positive (structural changes)” (End Point: IN VITRO CHROMOSOMAL ABERRATIONS, Test System: HUMAN (MALE) PERIPHERAL LYMPHOCYTES, Metabolic Activation: NONE, Method: FISH (METAPHASE)); “active; positive (structural changes; abnormal metaphase)” (End Point: IN VIVO CHROMOSOMAL ABERRATIONS, Test System: BONE MARROW CELLS, Species: RAT, Strain/Sex: WISTAR/MALE, FEMALE, Route: IP); “active; positive” (End Point: IN VIVO CHROMOSOMAL ABERRATIONS, Test System: BONE MARROW CELLS, Species: RAT, Strain/Sex: WISTAR, Route: IP); “active; positive (structural changes)” (End Point: IN VIVO CHROMOSOMAL ABERRATIONS, Test System: BONE MARROW, Species: RAT, Strain/Sex: WISTAR/MALE, FEMALE, Route: INTRAPERITONEAL); “active; positive (structural changes)” (End Point: IN VIVO CHROMOSOMAL ABERRATIONS, Test System: BONE MARROW, Species: RAT, Strain/Sex: WISTAR, Route: INTRAPERITONEAL (TEST MATERIAL SOLVENT: WATER)). The mutagenic call was “active; positive (structural changes)” (End Point: In vitro chromosomal aberrations, Test System: Chinese hamster ovary (CHO) cells, Metabolic Activation: None); “active; positive. fucus vesiculosus extract (84696-13-9) at 0.25-1.0 mg/ml was antimutag” (End Point: In vitro chromosomal aberrations, Test System: Human (female) lymphocytes); “active; positive (structural changes). significantly reduced by selenomethionine treatme” (End Point: In vitro chromosomal aberrations, Test System: Human lymphocytes, Metabolic Activation: None); “active; positive” (End Point: In vitro micronucleus, Test System: Human peripheral blood lymphocytes, Metabolic Activation: None); “active; positive (structural changes); administration of vitamin c or vitamin e decrease” (End Point: In vivo chromosomal aberrations, Test System: Bone marrow cells, Species: Rat, Strain/Sex: Wistar/Male and female, Route: Intraperitoneal); “active; positive (structural changes)” (End Point: In vivo chromosomal aberrations, Test System: Bone marrow cells, Species: Rat, Strain/Sex: Wistar/Male and female, Route: Oral). The mutagenic call by setting is: (End Point: In vivo chromosomal aberrations, Test System: Bone marrow, Species: Rat, Strain/Sex: Wistar/Male and female, Route: Intraperitoneal (Test material solvent: either distilled water or DMSO solution)) “active; positive (structural changes). prior treatment with propolis extract reduced the”; (End Point: In vivo micronucleus, Test System: Bone marrow erythrocytes, Species: Mouse, Strain/Sex: Swiss albino/Male, Route: Oral) “inactive; negative”; (Test System: AMES SALMONELLA TYPHIMURIUM, Strain/Indicator: GW257, Metabolic Activation: NONE, Method: STANDARD PLATE) “active; positive”; (Test System: AMES SALMONELLA TYPHIMURIUM, Strain/Indicator: TA97, Metabolic Activation: NONE, Method: STANDARD PLATE) “inactive; negative”; (Test System: AMES SALMONELLA TYPHIMURIUM, Strain/Indicator: TA97, Metabolic Activation: RAT, LIVER, S-9, PHENOBARBITAL AND ALPHA-NAPHTHOFLAVONE, Method: STANDARD PLATE) “inactive; negative”; (Test System: AMES SALMONELLA TYPHIMURIUM, Strain/Indicator: TA97A, Metabolic Activation: NONE, Method: STANDARD PLATE) “inactive; negative”. Also, the mutagenic call by setting is: (Test System: AMES SALMONELLA TYPHIMURIUM, Strain/Indicator: TA97A, Metabolic Activation: RAT, LIVER, S-9, AROCLOR 1254, Method: STANDARD PLATE) “inactive; negative”; (Test System: AMES SALMONELLA TYPHIMURIUM, Strain/Indicator: TA98, Metabolic Activation: NONE, Method: PREINCUBATION) “active; positive”; (Test System: AMES SALMONELLA TYPHIMURIUM, Strain/Indicator: TA98, Metabolic Activation: RAT, LIVER, S-9, AROCLOR 1254, Method: STANDARD PLATE) “active; positive”; (Test System: AMES SALMONELLA TYPHIMURIUM, Strain/Indicator: TA98, Metabolic Activation: RAT, LIVER, S-9, KC500 OR PHENOBARBITAL, Method: LIQUID SUSPENSION) “active; positive”; (Test System: AMES SALMONELLA TYPHIMURIUM, Strain/Indicator: TA98, Metabolic Activation: RAT, LIVER, S-9, PHENOBARBITAL AND ALPHA-NAPHTHOFLAVONE, Method: STANDARD PLATE) “active; positive”; (Test System: AMES SALMONELLA TYPHIMURIUM, Strain/Indicator: TA98, Metabolic Activation: S-9, Method: PREINCUBATION) “active; positive”. In addition, the mutagenic call was “inactive; negative” under setting [1]; “inactive; negative” (Test System: AMES SALMONELLA TYPHIMURIUM, Strain/Indicator: TA100, Metabolic Activation: RAT, LIVER, S-9, AROCLOR 1254, Method: STANDARD PLATE); “active; positive” (Test System: AMES SALMONELLA TYPHIMURIUM, Strain/Indicator: TA100, Metabolic Activation: RAT, LIVER, S-9, PHENOBARBITAL AND ALPHA-NAPHTHOFLAVONE, Method: STANDARD PLATE); “active; positive” (Test System: AMES SALMONELLA TYPHIMURIUM, Strain/Indicator: TA100, Metabolic Activation: S-9, Method: PREINCUBATION); “active; positive” (Test System: AMES SALMONELLA TYPHIMURIUM, Strain/Indicator: TA102, Metabolic Activation: NONE, Method: STANDARD PLATE); “active; positive” (Test System: AMES SALMONELLA TYPHIMURIUM, Strain/Indicator: TA102, Metabolic Activation: RAT, LIVER, S-9, AROCLOR 1254, Method: STANDARD PLATE). In addition, the mutagenic call is “inactive; negative” (Test System: AMES SALMONELLA TYPHIMURIUM, Strain/Indicator: TA1535, Metabolic Activation: NONE, Method: STANDARD PLATE); “inactive; negative” (Test System: AMES SALMONELLA TYPHIMURIUM, Strain/Indicator: TA1535, Metabolic Activation: RAT, LIVER, S-9, PHENOBARBITAL AND ALPHA-NAPHTHOFLAVONE, Method: STANDARD PLATE); “inactive; negative” (Test System: AMES SALMONELLA TYPHIMURIUM, Strain/Indicator: TA1537, Metabolic Activation: NONE, Method: STANDARD PLATE); “active; positive” (Test System: AMES SALMONELLA TYPHIMURIUM, Strain/Indicator: TA1978/PKM101, Metabolic Activation: NONE, Method: STANDARD PLATE); “inactive; negative” (Test System: AMES SALMONELLA TYPHIMURIUM, Strain/Indicator: TA1978, Metabolic Activation: NONE, Method: STANDARD PLATE); “active; positive” (Test System: AMES SALMONELLA TYPHIMURIUM, Strain/Indicator: TA2637, Metabolic Activation: NONE, Method: STANDARD PLATE). Also, the mutagenic call by setting is: (Test System: CHINESE HAMSTER OVARY, Strain/Indicator: CHO-AS52 (GPT), Metabolic Activation: NONE) “active; positive”; (Test System: CHINESE HAMSTER OVARY, Strain/Indicator: CHO-K1-BH4 (HPRT), Metabolic Activation: NONE) “active; positive”; (Test System: CHINESE HAMSTER V-79, Strain/Indicator: V-79 (HGPRT)/6-THIOGUANINE, Metabolic Activation: NONE) “active; positive”; (Test System: CHINESE HAMSTER V-79, Strain/Indicator: V-79-MZ (HPRT)/6-THIOGUANINE, Metabolic Activation: NONE) “active; positive”; (Test System: CHINESE HAMSTER V-79, Strain/Indicator: V-79/6-THIOGUANINE, Metabolic Activation: RAT, LIVER, HEPATOCYTES, Method: SUSPENSION/PLATE) “active; positive”; (Test System: CHINESE HAMSTER V-79, Strain/Indicator: V-79/6-THIOGUANINE, Metabolic Activation: RAT, LIVER, HOMOGENATE, Method: SUSPENSION/PLATE) “inactive; negative”. In addition, the mutagenic call runs as follows: (Test System: CHINESE HAMSTER V-79, Strain/Indicator: V-79/8-AZAGUANINE, Metabolic Activation: NONE, Method: STANDARD PLATE) “active; positive”; (Test System: CHINESE HAMSTER V-E5, Strain/Indicator: V-E5 (HPRT)/6-THIOGUANINE, Metabolic Activation: NONE) “active; positive”; (Test System: E. COLI, Strain/Indicator: WP2 (HCR), Metabolic Activation: NONE, Method: STANDARD PLATE) “inactive; negative”; under setting [2], “active; positive”.
On to `COC(=O)[C@@H](C)Cl`, for which the mutagenic call is, setting by setting: under setting [1], “active; positive”; (Test System: AMES SALMONELLA TYPHIMURIUM, Strain/Indicator: TA100, Metabolic Activation: RAT, LIVER, S-9, PCB, Method: PREINCUBATION) “active; positive”.
For the compound `O=P(O)(O)OC1C(OP(=O)(O)O)C(OP(=O)(O)O)C(OP(=O)(O)O)C(OP(=O)(O)O)C1OP(=O)(O)O` (stereo not given), the mutagenic call under setting [2] was “inactive; negative. reevaluation of results: negative” and the mutagenic call (Test System: MOUSE LYMPHOMA, Strain/Indicator: L5178Y (TK+/TK-), Metabolic Activation: RAT, LIVER, S-9, AROCLOR 1254, Method: SUSPENSION/PLATE) was “inactive; negative. reevaluation of results: negative”.

Values taken from PubChem BioAssay AID1259407 (Chemical Carcinogenesis Research Information System (CCRIS), 2018).
